Measurements published in patent US5459064A, “Protease” (Shionogi & Co., Ltd., priority 1990, dated 1995).
Residues, ends and D or L forms follow the SMILES beside them. *: point of attachment. Cbz = O=C(OCc1ccccc1)*; CH2Cl = ClC*

Experiments:
[1] = molecular target: BLase (the present enzyme) (Bacillus licheniformis, UniProt P80057); assay: Effect of inhibitors on the present enzyme; assay type: biochemical, Bacillus licheniformis ATCC No. 14580
[2] = test system: oxidized insulin B chain; assay: Cleavage of oxidized insulin B chain, HPLC peptide mapping; assay type: biochemical; details: 50 mM ammonium bicarbonate pH 7.8, enzyme/substrate 1/100 (W/W)

Chain of BLase (the present enzyme) (P80057 95-316): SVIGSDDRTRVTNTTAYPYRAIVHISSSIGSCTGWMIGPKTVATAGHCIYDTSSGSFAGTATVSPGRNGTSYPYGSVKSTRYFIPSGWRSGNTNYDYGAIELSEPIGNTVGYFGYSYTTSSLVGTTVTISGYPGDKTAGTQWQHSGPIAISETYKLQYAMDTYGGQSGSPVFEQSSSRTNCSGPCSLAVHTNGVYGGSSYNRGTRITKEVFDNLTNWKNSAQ

Compound	Inhibition of the present enzyme [1]	Inhibitory effect after addition of metal ions [1]	Maximum inhibition ratio [1]	Action on oxidized insulin B chain (peptide mapping) [2]
O=C(O)CN(CCN(CC(=O)O)CC(=O)O)CC(=O)O [EDTA]	partially inhibited	completely nullified	approximately 72%	
CC(C)C[C@H](NC(=O)[C@H](Cc1ccccc1)NC(=O)OCc1ccccc1)C(=O)N[C@@H](CCC(=O)O)C(=O)CCl [Z-Phe Leu Glu CH2 Cl] (Cbz-Phe-Leu-Glu-CH2Cl)	completely inhibited			
V8 protease: Serine protease from the V8 strain of Staphylococcus aureus, cleaves at the carboxyl terminal of glutamic acid residues				the peptide bonds at the carboxyl termini of the glutamic acid residues were cleaved
